Measurements published in the NIST ThermoML archive (doi:10.1016/j.jct.2016.08.022).

Assays:
[1] = Molar enthalpy of transition or fusion; settings: Crystal 2; Adiabatic calorimetry
[2] = for molar entropy: 101.33 kPa, Small (less than 1 g) adiabatic calorimetry

CCC(=O)O[C@]1(C(=O)COC(C)=O)CC[C@H]2[C@@H]3C[C@H](C)C4=CC(=O)C=C[C@]4(C)[C@H]3[C@@H](O)C[C@@]21C [Methylprednisolone aceponate]
Settings	Molar enthalpy of transition or fusion [kcal/mol]
[1]	0.0526

[2]
Settings	molar entropy [J/K/mol]
5 K, Crystal 2	0.628
10 K, Crystal 2	4.44
15 K, Crystal 2	10.8
20 K, Crystal 2	18.5
25 K, Crystal 2	27.49
30 K, Crystal 2	37.43
40 K, Crystal 2	58.9
50 K, Crystal 2	81.57
60 K, Crystal 2	105
70 K, Crystal 2	128.9
80 K, Crystal 2	152.9
90 K, Crystal 2	177.1
100 K, Crystal 2	201.3
110 K, Crystal 2	225.4
120 K, Crystal 2	249.3
130 K, Crystal 2	273.2
140 K, Crystal 1	296.3
150 K, Crystal 1	318.6
160 K, Crystal 1	340.7
170 K, Crystal 1	362.5
180 K, Crystal 1	384.1
190 K, Crystal 1	405.4
200 K, Crystal 1	426.6
210 K, Crystal 1	447.6
220 K, Crystal 1	468.5
230 K, Crystal 1	489.3
240 K, Crystal 1	509.9
250 K, Crystal 1	530.5
260 K, Crystal 1	551
270 K, Crystal 1	571.5
280 K, Crystal 1	591.8
290 K, Crystal 1	612.1
298.15 K, Crystal 1	628.6
300 K, Crystal 1	632.4
310 K, Crystal 1	652.6
320 K, Crystal 1	672.9
330 K, Crystal 1	693.1
340 K, Crystal 1	713.4
346 K, Crystal 1	725.6

Settings	Triple point temperature [K]
[2], Crystal 2, Adiabatic calorimetry	131
